# Tests used:
# Assay type in all cases: in vivo
# Matricaria inodora = experiment: Pre-emergence herbicidal efficacy, MATIN
# How it was run: (§1)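 Seeds were sown in pots and covered with soil; WP or EC formulations were sprayed onto the soil surface as aqueous suspension or emulsion with 0.5% additive. Pots were kept in a greenhouse, and after about 3 weeks damage was rated visually as percent versus untreated controls (100% = plants dead, 0% = like control).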
# Stellaria media = experiment: Pre-emergence herbicidal efficacy, STEME
# How it was run: as §1
# Viola tricolor [1] = experiment: Pre-emergence herbicidal efficacy, VIOTR
# How it was run: as §1
# Viola tricolor [2] = experiment: Post-emergence herbicidal efficacy, VIOTR
# Text: (§2) ABUTH: Abutilon theophrasti ALOMY: Alopecurus myosuroides AMARE: Amaranthus retroflexus AVEFA: Avena fatua CYPES: Cyperus esculentus ECHCG: Echinochloa crus-galli LOLMU: Lolium multiflorum MATIN: Matricaria inodora PHBPU: Ipomoea purpurea POLCO: Polygonum convolvulus SETVI: Setaria viridis STEME: Stellaria media VERPE: Veronica persica VTOTR: Viola tricolor
# (§3) C.2 Post-Emergence Herbicidal Action and Crop Plant Compatibility
# (§4) Seeds of monocotyledonous and dicotyledonous weeds and crop plants are placed in sandy loam in plastic or organic planting pots, covered with soil and cultivated in a greenhouse under controlled growth conditions. 2 to 3 weeks after sowing, the test plants are treated at the one-leaf stage. The compounds of the invention, formulated in the form of wettable powders (WP) or as emulsion concentrates (EC), are then sprayed onto the green parts of the plants as aqueous suspension or emulsion with addition of 0.5% additive at a water application rate of […] (converted). After the test plants had been kept in the greenhouse under optimum growth conditions for about 3 weeks, the activity of the preparations is rated visually in comparison to untreated controls. For example, 100% activity=the plants have died, 0% activity=like control plants.
# Veronica persica [3] = experiment: Post-emergence herbicidal efficacy, VERPE
# Text: as §2, §3, §4
# Echinochloa crus-galli = experiment: Pre-emergence herbicidal efficacy, ECHCG; details: Table B1, application rate 320 g/ha, scored visually after about 3 weeks vs untreated controls
# Text: (§5) C.1 Pre-Emergence Herbicidal Action and Crop Plant Compatibility
# (§6) Seeds of monocotyledonous and dicotyledonous weed plants and crop plants are placed in plastic or organic planting pots and covered with soil. The compounds of the invention, formulated in the form of wettable powders (WP) or as emulsion concentrates (EC), are then applied onto the surface of the covering soil as aqueous suspension or emulsion with addition of 0.5% additive at a water application rate of […] (converted). After the treatment, the pots are placed in a greenhouse and kept under good growth conditions for the trial plants. After about 3 weeks, the effect of the preparations is scored visually in comparison with untreated controls as percentages. For example, 100% activity=the plants have died, 0% activity=like control plants.
# as §2
# Lolium rigidum = experiment: Pre-emergence herbicidal efficacy, LOLRI; details: Table B1, application rate 320 g/ha, scored visually after about 3 weeks vs untreated controls
# Text: C.1 Pre-Emergence Herbicidal Action and Crop Plant Compatibility Seeds of monocotyledonous and dicotyledonous weed plants and crop plants are placed in plastic or organic planting pots and covered with soil. The compounds of the invention, formulated in the form of wettable powders (WP) or as emulsion concentrates (EC), are then applied onto the surface of the covering soil as aqueous suspension or emulsion with addition of 0.5% additive at a water application rate of […] (converted). After the treatment, the pots are placed in a greenhouse and kept under good growth conditions for the trial plants. After about 3 weeks, the effect of the preparations is scored visually in comparison with untreated controls as percentages. For example, 100% activity=the plants have died, 0% activity=like control plants. […] Here, for example, compound Nos. I-214 and I-196, when applied pre-emergence, have very good activity (80% to 100% herbicidal activity) against harmful plants such as Abutilon theophrasti, Amaranthus retroflexus, Echinochloa crus-galli, Lolium rigidum, Matricaria inodora, Polygonum convolvulus, Setaria viridis, Stellaria media, Veronica persica and Viola tricolor at an application rate of 0.32 kg of active substance or less per hectare. At the same time, some of the compounds according to the invention leave Gramineae crops such as barley, wheat, rye, millet/sorghum, corn, rice or sugar cane virtually undamaged when applied pre-emergence, even at high active compound dosages. In addition, some substances are also harmless to dicotyledonous crops such as soya, cotton, oilseed rape or sugar beet.
# Setaria viridis = experiment: Pre-emergence herbicidal efficacy, SETVI; details: Table B1, application rate 320 g/ha, scored visually after about 3 weeks vs untreated controls
# Text: as §5, §6, §2
# Abutilon theophrasti = experiment: Pre-emergence herbicidal efficacy, ABUTH; details: Table B1, application rate 320 g/ha, scored visually after about 3 weeks vs untreated controls
# Text: as §5, §6, §2
# Amaranthus retroflexus = experiment: Pre-emergence herbicidal efficacy, AMARE; details: scored visually after about 3 weeks vs untreated controls
# How it was run: as §1
# Polygonum convolvulus = experiment: Pre-emergence herbicidal efficacy, POLCO; details: scored visually after about 3 weeks vs untreated controls
# How it was run: as §1
# Veronica persica [4] = experiment: Pre-emergence herbicidal efficacy, VERPE; details: scored visually after about 3 weeks vs untreated controls
# How it was run: as §1
# [5] = application rate 320 g/ha, scored visually after about 3 weeks
# [6] = application rate 1280 g/ha, rated visually after about 3 weeks
# [7] = application rate 320 g/ha, rated visually after about 3 weeks (Table B7)
# [8] = Table B1, application rate 320 g/ha
# [9] = Table B1, application rate 320 g/ha, scored visually after about 3 weeks vs untreated controls
# [10] = Table B2, application rate 320 g/ha
# [11] = Table B2, application rate 320 g/ha, scored visually after about 3 weeks vs untreated controls
SMILES,Herbicidal efficacy against MATIN (Matricaria inodora; [5]) [%],Herbicidal efficacy against STEME (Stellaria media; [5]) [%],Herbicidal efficacy against VIOTR (Viola tricolor [1]; [5]) [%],Herbicidal efficacy against VIOTR (Viola tricolor [2]; [6]) [%],Herbicidal efficacy against VERPE (Veronica persica [3]; [6]) [%],Herbicidal efficacy against VIOTR (Viola tricolor [2]; [7]) [%],Herbicidal efficacy against VERPE (Veronica persica [3]; [7]) [%],Herbicidal efficacy against ECHCG (Echinochloa crus-galli) [%],Herbicidal efficacy against SETVI (Setaria viridis) [%],Herbicidal efficacy against ABUTH (Abutilon theophrasti) [%],Herbicidal efficacy against AMARE (Amaranthus retroflexus; [8]) [%],Herbicidal efficacy against MATIN (Matricaria inodora; [9]) [%],Herbicidal efficacy against POLCO (Polygonum convolvulus; [8]) [%],Herbicidal efficacy against STEME (Stellaria media; [9]) [%],Herbicidal efficacy against VIOTR (Viola tricolor [1]; [9]) [%],Herbicidal efficacy against VERPE (Veronica persica [4]; [8]) [%],other results
CC(=O)N1CCn2nc(NC3CCOc4ccccc43)nc2C1 (stereo not shown) [Example I-068],100,100,100,80,90,–,–,–,–,–,–,–,–,–,–,–,–
O=S(=O)(C1CC1)N1CCn2nc(NC3CCCc4ccccc43)nc2C1 (stereo not shown) [Example I-087],100,100,100,80,90,80,80,–,–,–,–,–,–,–,–,–,–
CC(=O)N1CCn2nc(N[C@@H]3CCCc4ccccc43)nc2C1 [Example I-163],–,–,–,–,–,80,90,100,100,100,100,100,100,100,100,100,Herbicidal efficacy against LOLRI (Lolium rigidum): 80%
Cc1ccc2c(c1)C(Nc1nc3n(n1)CCN(C(=O)c1cccc(Cl)c1)C3)C(C)C2 (stereo not shown) [Example I-170],90,100,100,–,–,80,90,–,–,–,–,–,–,–,–,–,–
Cc1ccc2c(c1)[C@H](Nc1nc3n(n1)CCN(S(=O)(=O)C1CC1)C3)[C@@H](C)C2 [Example I-192],–,–,–,–,–,80,80,–,–,–,–,–,–,–,–,–,Herbicidal efficacy against AMARE (Amaranthus retroflexus; [10]): 100%; Herbicidal efficacy against MATIN (Matricaria inodora; [11]): 100%; Herbicidal efficacy against POLCO (Polygonum convolvulus; [10]): 100%; Herbicidal efficacy against STEME (Stellaria media; [11]): 100%; Herbicidal efficacy against VIOTR (Viola tricolor [1]; [11]): 100%; Herbicidal efficacy against VERPE (Veronica persica [4]; [10]): 100%
Cc1ccc2c(c1)[C@H](Nc1nc3n(n1)CCN(S(=O)(=O)Cc1ccccc1)C3)[C@@H](C)C2 [Example I-194],90,100,100,–,–,80,100,–,–,–,–,–,–,–,–,–,–
Cc1ccc2c(c1)[C@H](Nc1nc3n(n1)CCN(S(=O)(=O)c1ccccc1Cl)C3)[C@@H](C)C2 [Example I-195],90,100,100,90,90,80,80,–,–,–,–,–,–,–,–,–,–
Cc1ccc2c(c1)[C@H](Nc1nc3n(n1)CCN(S(=O)(=O)Cc1ccccc1)C3)CCC2 [Example I-202],90,100,100,–,–,80,80,–,–,–,–,–,–,–,–,–,–
O=C1CCn2nc(NC3CCc4ccccc43)nc2N1CC1CC1 (stereo not shown) [Example I-219],100,100,100,80,90,–,–,–,–,–,–,–,–,–,–,–,–
[O-][S+]1CCCCn2nc(NC3CCOc4ccccc43)nc21 (stereo not shown) [Example I-247],100,100,100,80,80,–,–,–,–,–,–,–,–,–,–,–,–
[O-][S+]1CCCCn2nc(NC3CCCc4ccccc43)nc21 (stereo not shown) [Example I-249],–,–,–,80,80,–,–,100,100,100,100,100,100,100,100,100,–
O=C1CCn2nc(NC3CCOc4ccccc43)nc2N1Cc1cccc(C(F)(F)F)c1 (stereo not shown) [Example I-273],80,100,100,90,100,–,–,–,–,–,–,–,–,–,–,–,–
Cc1ccc2c(c1)C(Nc1nc3n(n1)CCCN3S(=O)(=O)C1CC1)CCC2 (stereo not shown) [Example I-327],100,100,100,–,–,80,90,–,–,–,–,–,–,–,–,–,Herbicidal efficacy against AMARE (Amaranthus retroflexus; [10]): 100%; Herbicidal efficacy against MATIN (Matricaria inodora; [11]): 100%; Herbicidal efficacy against STEME (Stellaria media; [11]): 100%; Herbicidal efficacy against VIOTR (Viola tricolor [1]; [11]): 100%; Herbicidal efficacy against VERPE (Veronica persica [4]; [10]): 100%
Cc1ccc2c(c1)[C@H](Nc1nc3n(n1)CCCC[S+]3[O-])CC2 (stereo partly shown) [Example I-370],–,–,–,–,–,–,–,100,100,100,100,100,100,100,100,100,Herbicidal efficacy against LOLRI (Lolium rigidum): 100%
Cc1ccc2c(c1)C(Nc1nc3n(n1)CCCC[S+]3[O-])C(C)C2 (stereo not shown) [Example I-371],–,–,–,–,–,–,–,100,100,100,100,100,100,100,100,100,Herbicidal efficacy against LOLRI (Lolium rigidum): 100%
Cc1ccc2c(c1)[C@H](Nc1nc3n(n1)CCCS3)CCO2 [Example I-376],–,–,–,–,–,–,–,100,100,100,100,100,100,100,100,100,Herbicidal efficacy against LOLRI (Lolium rigidum): 100%
Cc1ccc2c(c1)[C@H](Nc1nc3n(n1)CCCC[S+]3[O-])CCO2 (stereo partly shown) [Example I-380],–,–,–,–,–,–,–,100,100,100,100,100,100,100,100,100,Herbicidal efficacy against LOLRI (Lolium rigidum): 80%

# Source: patent US20200331904A1, “3-AMINO-[1,2,4]-TRIAZOLE DERIVATIVES AND THEIR USE FOR CONTROLLING UNDESIRED PLANT GROWTH” (Bayer CropScience Aktiengesellschaft, priority 2017, published 2020)
